Test results published in PubChem BioAssay AID1117361 (Southern Research Institute, 2015).

biological target: Protein Tat (Human immunodeficiency virus type 1 group M subtype B (isolate HXB2)) (UniProt P04608); assay: inhibitors of Tat binding to TAR RNA, dose response, counter-screen for Vif-APOBEC3G degradation inhibitor project, biochemical, fluorescence polarization, FAM-labeled TAR RNA (AID 1117361)
Sequence (P04608 whole entry, looked up): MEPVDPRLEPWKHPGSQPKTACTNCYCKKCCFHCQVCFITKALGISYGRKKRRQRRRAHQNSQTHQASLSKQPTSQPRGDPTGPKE

`COc1ccc(/C=C(\NC(=O)c2ccc(OCC(C)C)cc2)C(=O)OCc2ccco2)cc1` and `COc1ccc(NC(=O)CN(C)C(=O)c2cc(-c3ccco3)nc3ccccc23)cc1` are within 1.5-fold of each other in IC50: 61.5 µM for the first, 46.4 µM for the second.

First: COc1cccc2c1NC(C(=O)O)C1CC=CC21 (stereo unspecified)
Second: O=C(O)c1ccc2c(c1)C1C=CCC1C(c1ccncc1)N2 (stereo unspecified)
The IC50 of the first is 3.4-fold lower: 1.87 µM for the first, 6.37 µM for the second.

Compared with `Cc1cccc(/C=C(\C(=O)O)c2ccc(S(=O)(=O)N3CCCC3)s2)c1`, `O=C(C1CCCN1S(=O)(=O)c1cccc2cccnc12)N1CCN(c2ccccc2)CC1` (stereo unspecified) is 2.1-fold lower in IC50: 98 µM for the first, 46.8 µM for the second.

Going from `CN1CCN(C2=C(Cl)C(=O)c3ccccc3C2=O)CC1` to `O=C1C(Cl)=C(N2CCOCC2)C(=O)N1c1ccccc1`, the IC50 falls from 40 µM to 16.6 µM (2.4-fold). The second is the more potent here.

Compared with `CC(=O)Nc1ccc(S(=O)(=O)Nc2nc3ccccc3nc2Nc2ccc(C(=O)O)c(O)c2)cc1`, `CC(=O)c1ccc(NC(=O)c2ccc3nc(-c4ccco4)c(-c4ccco4)nc3c2)cc1` is 4.2-fold lower in IC50: 32.2 µM for the first, 7.73 µM for the second. The second is the more potent here.

Going from `C=CCn1c(C)c(C(C)=O)c(N2CCN(c3ccccc3)CC2)nc1=S` to `CC1=CC(=Nc2c(C)n(C)n(-c3ccccc3)c2=O)C=CC1=O`, the IC50 rises from 7.51 µM to 14.5 µM (1.9-fold).

First: COCCCNC(=O)/C(C#N)=C/c1ccc(OCC(=O)O)c(OC)c1
Second: COC(=O)c1ccc(CC(=O)c2c(C)cc(O)cc2O)o1
The IC50 of the first is 3.1-fold higher: 34.4 µM for the first, 11.2 µM for the second. The second is the more potent here.

`COCCNC(=O)Nc1ccc2nc(-c3ccco3)c(-c3ccco3)nc2c1` and `O=C(Nc1ccc2nc(-c3ccco3)c(-c3ccco3)nc2c1)NC1CC1` are within 1.5-fold of each other in IC50: 2.17 µM for the first, 1.83 µM for the second.

`CCn1cc(CNC(=O)c2ccc(Cl)c([N+](=O)[O-])c2)c(C)n1` and `CCn1c2ccccc2c2cc(NC(=O)c3ccccc3[N+](=O)[O-])ccc21` are within 1.5-fold of each other in IC50: 43 µM for the first, 43.8 µM for the second.

Going from `CCOC(=O)C1CCCN(C(=O)c2ccc(CNc3c(N4CCC(C)CC4)c(=O)c3=O)cc2)C1` (stereo unspecified) to `CCOC(=O)c1ccc(NS(=O)(=O)c2ccc3c(c2)oc(=O)n3C)cc1`, the IC50 falls from 65.3 µM to 0.996 µM (66-fold). The second is the more potent here.

Compared with `O=C(NCCc1c[nH]c2ccccc12)c1ccc(S(=O)(=O)NCc2ccco2)cc1`, `COc1ccc(NC(=O)c2cccc(S(=O)(=O)Nc3ccc(Br)cc3)c2)cn1` is 22-fold lower in IC50: 48.3 µM for the first, 2.15 µM for the second.

Going from `CCCOc1ccc(N)cc1N` to `COc1cc2c(cc1N)-c1ccc(N)cc1C2`, the IC50 falls from 59.5 µM to 2.51 µM (24-fold). The second is the more potent here.

Going from `Cc1cccc(-n2c(Cc3cc(=O)[nH]c(=O)[nH]3)nnc2SCC(=O)NCC2CCCO2)c1` (stereo unspecified) to `COc1cccc(-n2c(Cc3cc(=O)[nH]c(=O)[nH]3)nnc2SCC(=O)NC2CCCC2)c1`, the IC50 falls from 58.5 µM to 10.1 µM (5.8-fold). The second is the more potent here.

First: Cc1cccc(C)c1NC(=O)COC(=O)c1cc(-c2cccnc2)nc2ccccc12
Second: COc1ccc(NC(=O)c2cc(-c3ccco3)nc3ccccc23)cc1S(=O)(=O)N1CCOCC1
The IC50 of the first is 4.4-fold higher: 84.6 µM for the first, 19.3 µM for the second. The second is the more potent here.

Going from `Cc1ccc(/C=c2\sc3nc(-c4cccs4)nn3c2=O)o1` to `CC1=C(C(=O)Nc2ccccc2)C(c2ccc(C)o2)n2c(s/c(=C\c3ccco3)c2=O)=N1` (stereo unspecified), the IC50 falls from 13.6 µM to 5.9 µM (2.3-fold).

Compared with `COc1cccc(NC(=O)CSc2nnc(-c3ccco3)c(-c3ccco3)n2)c1`, `O=S(=O)(c1ccc2nc(-c3ccco3)c(-c3ccco3)nc2c1)N1CCOCC1` is 1.5-fold lower in IC50: 69.3 µM for the first, 44.9 µM for the second.

Going from `c1cncc(-c2nnc3sc(-c4ccco4)nn23)c1` to `CC1=NN(c2cccc(C(=O)O)c2)C(=O)/C1=C\C=C\c1ccco1`, the IC50 falls from 64 µM to 12 µM (5.3-fold). The second is the more potent here.

Compared with `CN1c2ccsc2C(O)=C(C(=S)Nc2ccc(F)c(Cl)c2)S1(=O)=O`, `CC(/C=C1\SC(=S)N(CCCC(=O)Nc2ccc(C(=O)O)c(O)c2)C1=O)=C\c1ccccc1` is 4.8-fold higher in IC50: 5.38 µM for the first, 26 µM for the second.

`Oc1ccc(-c2cn3c(n2)SCC3)cc1O` and `Clc1ccc(-c2cn3cccnc3n2)cc1Cl` are within 1.5-fold of each other in IC50: 71.9 µM for the first, 90.9 µM for the second.

First: Cc1[nH]c2c(Cl)cccc2c(=O)c1CN1CCCC1
Second: CCN1CCN(C2=NC(=O)/C(=C/c3ccc(C)o3)S2)CC1
The IC50 of the first is 53-fold higher: 78.3 µM for the first, 1.47 µM for the second.

Compared with `O=C(Cc1csc(N2CCOCC2)n1)N/N=C/c1ccc(O)c(O)c1O`, `Oc1ccc(/C=N/NC2=NCCCCC2)c(O)c1` is 1.5-fold higher in IC50: 16.7 µM for the first, 25.1 µM for the second.

First: CCOC(=O)C(=O)Cc1cccnn1
Second: CC(=O)OCCCNc1cc(Sc2nc3ccccc3s2)c2nonc2c1[N+](=O)[O-]
The IC50 of the first is 15-fold higher: 49.5 µM for the first, 3.41 µM for the second.

`COC/C=C/C1=CC2=CC(=O)C(C)(OC(=O)c3cnc4ccccc4n3)C(=O)C2=CN1c1ccccc1` (stereo unspecified) and `O=C(O)c1ccc(-n2cccc2/C=C2/NC(=O)N(c3ccccc3)C2=O)cc1` are within 1.5-fold of each other in IC50: 22.3 µM for the first, 15.7 µM for the second.

First: O/C=c1\ccc2cccc3nc(C(F)(F)F)nc1c23
Second: Cc1c2ccccc2nc2c(F)c(N(C)C)c(F)c(F)c12
The IC50 of the first is 2.2-fold lower: 2.92 µM for the first, 6.51 µM for the second. The first is the more potent here.

`Cn1c(=O)c2c(ncn2CC(=O)N/N=C/C=C/c2ccco2)n(C)c1=O` and `Cc1cc(C)c(C(=O)/C=C/c2ccco2)c(=O)[nH]1` are within 1.5-fold of each other in IC50: 17.1 µM for the first, 12.1 µM for the second.

First: Cc1ccc2cc(CN(Cc3nnnn3Cc3ccco3)CC3CCCO3)c(=O)[nH]c2c1C (stereo unspecified)
Second: Cc1cc(C(=O)COC(=O)c2cc(O)c3ccccc3c2O)c(C)n1CC1CCCO1 (stereo unspecified)
The IC50 of the first is 3.2-fold higher: 29.4 µM for the first, 9.14 µM for the second. The second is the more potent here.

First: CCOC1(OCC)N=C(N)C2(C#N)C(c3cccc(OC)c3OC)C12C#N (stereo unspecified)
Second: COc1ccc(O)c(N)c1
The IC50 of the first is 3.5-fold lower: 1.59 µM for the first, 5.5 µM for the second. The first is the more potent here.

Going from `O=C1CC(c2ccco2)CC(O)=C1C=Nc1ccc(Br)cc1` (stereo unspecified) to `CN1CCc2cccc3c2[C@H]1Cc1ccc(O)c(O)c1-3`, the IC50 falls from 77.6 µM to 19.1 µM (4.1-fold). The second is the more potent here.

First: Cc1cc(C(=O)NCCCN2CCCC2=O)no1
Second: COC(=O)CCC(=O)OC1(C)C(=O)C=C2C=C3CCCN3C=C2C1=O (stereo unspecified)
The IC50 of the first is 2.2-fold higher: 24 µM for the first, 11.1 µM for the second. The second is the more potent here.

First: CC(=O)NC1=NC(=O)/C(=C/c2cc(C)n(-c3cccc(C(=O)O)c3)c2C)S1
Second: Cc1cc(/C=C2\C(=O)NC(=O)N(c3cccc(F)c3)C2=O)c(C)n1-c1cc(C(=O)O)cc(C(=O)O)c1
The IC50 of the first is 10-fold higher: 29.7 µM for the first, 2.95 µM for the second. The second is the more potent here.

Compared with `O=c1oc(/C=C/c2ccco2)nc2sc3c(c12)CCC3`, `COc1ccc(C2=NCC(=O)N(CC(=O)NCc3ccco3)c3sc4c(c32)CCCC4)cc1OC` is 6.9-fold higher in IC50: 11.9 µM for the first, 82.3 µM for the second. The first is the more potent here.

First: O=C1NC(=S)N(c2ccccc2)C(=O)/C1=C/c1ccco1
Second: O=C(CCCN1C(=O)/C(=C\c2ccco2)SC1=S)Nc1ccc2ccccc2c1
The IC50 of the first is 3-fold lower: 16.2 µM for the first, 48.3 µM for the second.

First: CCOC(=O)Cn1nnnc1C(C(C)C)N(Cc1cc2c(C)cc(C)cc2[nH]c1=O)C1CCCC1 (stereo unspecified)
Second: C=C(C)C(=O)Nc1cccc(C2=NOC3(C2)C[C@@H](C(N)=O)N(C(=O)CCCCC)C3)c1 (stereo partly specified)
The IC50 of the first is 12-fold higher: 67.6 µM for the first, 5.76 µM for the second. The second is the more potent here.

`O=C1CC(=O)N(Cc2ccco2)C(=S)N1` and `O=C(O)CC(C(=O)O)N1C(=O)/C(=C/C=C/c2ccco2)SC1=S` (stereo unspecified) are within 1.5-fold of each other in IC50: 1.56 µM for the first, 1.33 µM for the second.

Compared with `O=C(O)C1=NN(c2cc(Cl)c(S(=O)(=O)O)cc2Cl)C(=O)C1`, `Cc1cc(C(=O)O)ccc1-n1c(C)ccc1C` is 5.3-fold lower in IC50: 30.9 µM for the first, 5.78 µM for the second. The second is the more potent here.

Compared with `Cc1cccc(N2C(=O)NC(=O)/C(=C/c3cc4c(cc3[N+](=O)[O-])OCO4)C2=O)c1`, `CC(C)Cn1c(SCC(=O)NC(=O)Nc2ccc3c(c2)OCCO3)nc2ccccc2c1=O` is 1.8-fold higher in IC50: 0.906 µM for the first, 1.62 µM for the second. The first is the more potent here.

First: Cc1c(O)cc2c(c1O)C(=O)CC(c1ccc(O)cc1)O2 (stereo unspecified)
Second: Cc1cc(O)c(-c2cc(O)c(C)cc2O)cc1O
The IC50 of the first is 2.4-fold lower: 37.2 µM for the first, 89.7 µM for the second. The first is the more potent here.

Going from `O=C1CC(SC(=S)C2CCCC2=O)C(=O)N1` (stereo unspecified) to `O=C(Nc1nnc(C2CCCO2)s1)c1cccs1` (stereo unspecified), the IC50 rises from 3.21 µM to 98.8 µM (31-fold). The first is the more potent here.

Going from `O=C1C2C3C=CC(C3)C2C(=O)N1CNc1ccc(O)cc1` (stereo unspecified) to `O=[N+]([O-])c1cc(/C=N\Nc2nccs2)ccc1O`, the IC50 falls from 25.7 µM to 5.68 µM (4.5-fold). The second is the more potent here.

First: COC(=O)CCC(=O)OC1(C)C(=O)C2=COC(c3ccc(OC)cc3)=CC2=C(Br)C1=O (stereo unspecified)
Second: CCN(CC)c1ccc2oc(=O)c(C)nc2c1
The IC50 of the first is 1.6-fold lower: 13 µM for the first, 20.2 µM for the second. The first is the more potent here.

`CC1Cc2ccccc2N1Cc1cc(=O)n2ccsc2n1` (stereo unspecified) showed an IC50 of 10 µM.
